How the values were obtained:
Assay in all cases: relative viability (nuclei count vs DMSO), 5 days (fraction); higher = more cells survive
PRIMA-1MET = compound: COCC1(CO)C(=O)C2CCN1CC2 [PRIMA-1MET]
Summary of the method: (§1)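 Hoechst staining, done together with fixation and permeabilisation, marked nuclei for 4× imaging and MetaXpress counting. This followed 5 days without medium change after lung cancer cell lines, kept overnight at 37 °C in 1536-well plates, were pinned with five library-drug doses (not always all listed) spaced by √10 on vehicle-anchored plates. Viability is the ratio of treated-well to vehicle-well nuclei, expressed as a median across plates. Plates passed only at control CV below 25% with at least one doubling.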

Zibotentan = compound: COc1nc(C)cnc1NS(=O)(=O)c1cccnc1-c1ccc(-c2nnco2)cc1 [Zibotentan]
Summary of the method: as §1

[1] = compound: CCN(CC)CCCCNc1ncc2cc(-c3cc(OC)cc(OC)c3)c(NC(=O)NC(C)(C)C)nc2n1
Summary of the method: as §1

[2] = compound: O=c1cc(-c2cccc3c2Sc2ccccc2S3)oc(N2CCOCC2)c1
Summary of the method: as §1

[3] = compound: C1COCCN1C2=CC(=O)C3=C(O2)C(=CC=C3)C4=CC=CC5=C4SC6=CC=CC=C56
Summary of the method: as §1

| Cell Line | relative viability (PRIMA-1MET; 0.2 µM) | relative viability (PRIMA-1MET; 0.6325 µM) | relative viability (PRIMA-1MET; 2 µM) | relative viability (PRIMA-1MET; 6.325 µM) | relative viability (PRIMA-1MET; 20 µM) | relative viability (Zibotentan; 0.08 µM) | relative viability (Zibotentan; 0.8 µM) | relative viability (Zibotentan; 2.53 µM) | relative viability ([1]; 0.03162 µM) | relative viability ([1]; 0.1 µM) | relative viability ([1]; 0.3162 µM) | relative viability ([1]; 1 µM) | relative viability ([2]; 0.08 µM) | relative viability ([2]; 0.253 µM) | relative viability ([2]; 0.8 µM) | relative viability ([2]; 2.53 µM) | relative viability ([2]; 8 µM) | relative viability ([3]; 0.01 µM) | relative viability ([3]; 0.03162 µM) | relative viability ([3]; 0.1 µM) | relative viability ([3]; 0.3162 µM) | relative viability ([3]; 1 µM) | relative viability (Zibotentan; 0.253 µM) | relative viability ([1]; 0.01 µM) |
| --- | --- | --- | --- | --- | --- | --- | --- | --- | --- | --- | --- | --- | --- | --- | --- | --- | --- | --- | --- | --- | --- | --- | --- | --- |
| EMC-BAC-2 | 1.31 | 0.916 | 0.738 | 1.05 | 0.971 | 1.41 | 1.08 | 1.02 | 0.967 | 1.13 | 1.13 | 0.994 | 0.927 | 1.12 | 0.999 | 1.03 | 1.18 | 0.94 | 1.03 | 1.07 | 1.09 | 0.655 | – | – |
| SK-MES-1 | 1.1 | 1 | 0.993 | 1.09 | 0.98 | 1.01 | 0.955 | 1.07 | 1.07 | 1.08 | 1.08 | 1.01 | 1 | 1.16 | 0.927 | 0.933 | 0.928 | 1 | 1 | 0.999 | 0.988 | 0.934 | 0.911 | 1.09 |
| ChaGo-K-1 | 0.994 | 0.814 | 0.98 | 1 | 0.884 | 1.04 | 0.743 | 0.943 | 0.967 | 1.11 | 1.02 | 0.941 | 0.975 | 0.953 | 1.03 | 0.935 | 1.08 | 1.03 | 0.956 | 0.95 | 1.04 | 0.954 | 0.983 | 1.02 |
| NCI-H1975 | 1.05 | 0.937 | 0.847 | 1.04 | 0.753 | 0.966 | 0.892 | 1.01 | 0.87 | 1.01 | 1.2 | 0.882 | 0.907 | 1.12 | 0.836 | 0.936 | 0.966 | 0.941 | 0.985 | 0.866 | 0.97 | 1.04 | 0.882 | 0.993 |
| NCI-H358 | 1.09 | 0.775 | 0.829 | 1.07 | 0.451 | 0.954 | 0.924 | 0.956 | 0.933 | 1.05 | 1.15 | 0.815 | 0.807 | 1.04 | 0.985 | 0.988 | 0.888 | 0.857 | 0.93 | 1.04 | 1.07 | 1.05 | 0.675 | 0.899 |
| NCI-H23 | 0.904 | 0.754 | 0.814 | 0.909 | 0.201 | 1.05 | 0.89 | 1.1 | 1 | 0.957 | 1.08 | 0.977 | 0.776 | 1.11 | 1.02 | 0.846 | 0.879 | 0.981 | 1.11 | – | 1.12 | 1.03 | 0.91 | 0.923 |
| NCI-H2085 | 1.06 | 1 | 0.791 | 1.05 | 0.524 | 1.01 | 1.05 | 1.03 | 0.987 | 0.99 | 1.02 | 0.972 | 0.95 | 1.1 | 1.05 | 0.96 | 0.892 | 0.986 | 0.961 | 0.97 | 0.974 | 0.966 | 0.954 | 1.03 |
| COR-L23 | 1.33 | 0.936 | 0.94 | 1.11 | 0.0329 | 1.06 | 1.01 | 1.03 | 1.14 | 1.33 | 1.16 | 1.11 | 1.03 | 1.37 | 1.12 | 1.03 | 1.14 | 1 | 1 | 1.01 | 1.02 | 1.06 | 1.06 | 1.1 |
| RERF-LC-KJ | 1.11 | 1.01 | 1.06 | 1.12 | 0.952 | 1.02 | 0.904 | 1.03 | 1.11 | 1.04 | 1.06 | 0.978 | 0.932 | 1.09 | 1.03 | 0.968 | 0.929 | 0.992 | 0.974 | 1.03 | 0.949 | 0.956 | 0.925 | 1.02 |
| HCC-827 | 0.986 | 0.952 | 0.791 | 1.02 | 1.02 | 1.05 | 1.05 | 1.01 | 1.07 | 1.08 | 1.06 | 1 | 1.04 | 1.07 | 1.05 | 0.773 | 1.06 | 1.04 | 1.11 | 1.02 | 1.06 | 0.992 | 1.04 | 1.04 |
| NCI-H1299 | 1.08 | 1.03 | 1.03 | 1.02 | 0.977 | 1.02 | 0.998 | 1.02 | 1.06 | 1.09 | 1.06 | 1.02 | 1.02 | 1.02 | 1.04 | 1.02 | 1.01 | 1.01 | 0.987 | 1.02 | 0.994 | 1.01 | 1.02 | 1.03 |
| NCI-H727 | 1.01 | 0.865 | 0.625 | 0.615 | 0.331 | 0.847 | 0.966 | 1.01 | 0.978 | 0.94 | 1.07 | 0.882 | 0.908 | 1.08 | 0.758 | 0.899 | 0.924 | 0.91 | 0.858 | 0.874 | 0.888 | 0.958 | 0.872 | 0.985 |
| NCI-H1623 | 1.07 | 0.943 | 0.926 | 0.997 | 0.598 | 0.936 | 1.05 | 0.85 | 0.888 | 0.913 | 0.993 | 0.933 | 1.03 | 0.981 | 0.957 | 0.944 | 1.07 | 0.939 | 0.932 | 0.888 | 0.931 | 0.888 | 0.744 | 0.951 |
| HCC-15 | 0.967 | 0.856 | 0.936 | 1.01 | 0.874 | 0.995 | 1.09 | 1.01 | 1.03 | 1.08 | 1.2 | 0.957 | 0.954 | 1.13 | 1.06 | 0.94 | 1.06 | 0.963 | 1.14 | 1.08 | 0.968 | 1.03 | 0.994 | 1.08 |
